What all share (test): Affinity-purification and mass spectrometry (AP-MS) chemical proteomics, all proteins;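 as to Difference: 200 µM free competitor with 20 µM biotin probe overnight in lysate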
Common to all, as to format: binding

Experiment [1] has as its target T1, proteins displaced from immobilized biotin-Cmpd 1 pulldowns (U2OS cell lysate) (Homo sapiens, UniProt P06733).
T1 construct: endogenous in cells; host or cells: U2OS
As to conditions: GN=ENO1 (P06733).

In experiment [2] the target is T2, proteins displaced from immobilized biotin-Cmpd 1 pulldowns (U2OS cell lysate) (Homo sapiens, UniProt P09211).
T2 construct: endogenous in cells; host or cells: U2OS
T2 sequence (P09211 whole entry): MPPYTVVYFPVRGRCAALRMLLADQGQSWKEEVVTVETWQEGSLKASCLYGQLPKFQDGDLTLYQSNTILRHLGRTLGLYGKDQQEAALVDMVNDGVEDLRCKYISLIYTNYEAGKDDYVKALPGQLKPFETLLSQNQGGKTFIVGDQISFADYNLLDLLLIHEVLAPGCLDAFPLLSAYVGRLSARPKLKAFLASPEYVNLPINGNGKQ
Particulars: GN=GSTP1 (P09211).

The target of experiment [3] is T3, proteins displaced from immobilized biotin-Cmpd 1 pulldowns (U2OS cell lysate) (Homo sapiens, UniProt Q9Y3C1).
T3 construct: endogenous in cells; host or cells: U2OS
T3 sequence (Q9Y3C1 whole entry): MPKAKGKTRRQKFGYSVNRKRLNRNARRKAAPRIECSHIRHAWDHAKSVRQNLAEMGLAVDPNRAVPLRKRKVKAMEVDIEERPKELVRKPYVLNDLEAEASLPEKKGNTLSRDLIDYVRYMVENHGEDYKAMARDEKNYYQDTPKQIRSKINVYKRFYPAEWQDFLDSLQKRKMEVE
Particulars: GN=NOP16 (Q9Y3C1).

The target in experiment [4] is T4, proteins displaced from immobilized biotin-Cmpd 1 pulldowns (U2OS cell lysate) (Homo sapiens, UniProt P10599).
T4 construct: endogenous in cells; host or cells: U2OS
T4 sequence (P10599 whole entry): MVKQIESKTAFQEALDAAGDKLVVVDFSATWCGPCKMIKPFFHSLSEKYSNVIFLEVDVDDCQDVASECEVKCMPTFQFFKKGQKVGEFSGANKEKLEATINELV
Particulars: GN=TXN (P10599).

Experiment [5] concerns the target T5, proteins displaced from immobilized biotin-Cmpd 1 pulldowns (U2OS cell lysate) (Homo sapiens, UniProt Q02880).
T5 construct: endogenous in cells; host or cells: U2OS
As to conditions: GN=TOP2B (Q02880).

The target of experiment [6] is T6, proteins displaced from immobilized biotin-Cmpd 1 pulldowns (U2OS cell lysate) (Homo sapiens, UniProt Q96HE9).
T6 construct: endogenous in cells; host or cells: U2OS
T6 sequence (Q96HE9 whole entry): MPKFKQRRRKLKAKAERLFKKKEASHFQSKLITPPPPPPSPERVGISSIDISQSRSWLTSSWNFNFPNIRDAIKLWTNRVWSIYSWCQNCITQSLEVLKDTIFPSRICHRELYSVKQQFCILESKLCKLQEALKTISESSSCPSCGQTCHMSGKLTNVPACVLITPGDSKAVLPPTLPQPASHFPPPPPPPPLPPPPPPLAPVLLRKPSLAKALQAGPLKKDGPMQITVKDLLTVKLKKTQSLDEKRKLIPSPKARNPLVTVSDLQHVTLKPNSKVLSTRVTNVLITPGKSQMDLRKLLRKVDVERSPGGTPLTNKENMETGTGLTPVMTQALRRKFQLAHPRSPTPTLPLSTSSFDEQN
As to conditions: GN=PRR11 (Q96HE9).

The target in experiment [7] is T7, proteins displaced from immobilized biotin-Cmpd 1 pulldowns (U2OS cell lysate) (Homo sapiens, UniProt Q7Z2W9).
T7 construct: endogenous in cells; host or cells: U2OS
Particulars: GN=MRPL21 (Q7Z2W9).

The target in experiment [8] is T8, proteins displaced from immobilized biotin-Cmpd 1 pulldowns (U2OS cell lysate) (Homo sapiens, UniProt Q6PK04).
T8 construct: endogenous in cells; host or cells: U2OS
T8 sequence (Q6PK04 whole entry): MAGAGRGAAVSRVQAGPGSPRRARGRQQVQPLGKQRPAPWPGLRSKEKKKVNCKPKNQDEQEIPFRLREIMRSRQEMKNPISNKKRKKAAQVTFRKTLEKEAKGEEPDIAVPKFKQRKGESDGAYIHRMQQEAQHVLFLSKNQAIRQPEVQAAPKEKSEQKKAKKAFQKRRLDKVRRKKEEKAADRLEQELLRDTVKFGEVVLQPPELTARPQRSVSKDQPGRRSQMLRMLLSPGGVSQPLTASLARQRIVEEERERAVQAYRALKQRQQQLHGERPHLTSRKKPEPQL
Particulars: GN=CCDC137 (Q6PK04).

In experiment [9] the target is T9, proteins displaced from immobilized biotin-Cmpd 1 pulldowns (U2OS cell lysate) (Homo sapiens, UniProt O94925).
T9 construct: endogenous in cells; host or cells: U2OS
T9 sequence (O94925 55-669): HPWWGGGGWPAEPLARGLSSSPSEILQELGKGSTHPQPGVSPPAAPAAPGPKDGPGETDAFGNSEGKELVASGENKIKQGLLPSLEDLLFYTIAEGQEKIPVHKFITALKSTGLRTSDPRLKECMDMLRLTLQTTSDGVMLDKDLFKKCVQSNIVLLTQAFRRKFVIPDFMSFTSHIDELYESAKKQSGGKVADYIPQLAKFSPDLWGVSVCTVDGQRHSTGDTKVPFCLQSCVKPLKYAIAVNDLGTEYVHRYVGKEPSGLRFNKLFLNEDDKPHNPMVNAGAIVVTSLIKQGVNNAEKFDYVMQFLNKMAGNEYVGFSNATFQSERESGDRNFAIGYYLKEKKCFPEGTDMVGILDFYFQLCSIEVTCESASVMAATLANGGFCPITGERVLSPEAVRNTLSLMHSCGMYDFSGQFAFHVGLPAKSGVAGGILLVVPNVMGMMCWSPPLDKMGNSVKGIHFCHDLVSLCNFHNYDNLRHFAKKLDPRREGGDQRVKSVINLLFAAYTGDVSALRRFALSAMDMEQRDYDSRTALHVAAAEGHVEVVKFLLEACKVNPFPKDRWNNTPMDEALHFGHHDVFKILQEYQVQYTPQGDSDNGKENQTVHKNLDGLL
Particulars: GN=GLS (O94925).

Experiment [10] concerns the target T10, proteins displaced from immobilized biotin-Cmpd 1 pulldowns (U2OS cell lysate) (Homo sapiens, UniProt Q9BUF5).
T10 construct: endogenous in cells; host or cells: U2OS
As to conditions: GN=TUBB6 (Q9BUF5).

The structures appear in SMILES notation. “And” between values parts separate entries of the source, which are not always exact repeats. Identical values can stand only once.

T1 sequence (P06733 whole entry): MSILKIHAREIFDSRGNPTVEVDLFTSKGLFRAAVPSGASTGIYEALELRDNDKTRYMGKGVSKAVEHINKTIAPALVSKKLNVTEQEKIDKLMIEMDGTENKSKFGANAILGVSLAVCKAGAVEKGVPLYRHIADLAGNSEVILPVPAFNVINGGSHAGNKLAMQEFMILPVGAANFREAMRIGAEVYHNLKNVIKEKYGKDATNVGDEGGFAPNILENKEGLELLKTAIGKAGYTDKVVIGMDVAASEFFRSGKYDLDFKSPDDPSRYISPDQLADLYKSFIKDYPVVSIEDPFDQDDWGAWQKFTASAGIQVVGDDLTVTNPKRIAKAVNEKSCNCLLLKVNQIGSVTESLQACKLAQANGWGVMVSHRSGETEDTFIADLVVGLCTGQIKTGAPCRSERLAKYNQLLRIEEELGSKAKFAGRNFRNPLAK
T5 sequence (Q02880 whole entry): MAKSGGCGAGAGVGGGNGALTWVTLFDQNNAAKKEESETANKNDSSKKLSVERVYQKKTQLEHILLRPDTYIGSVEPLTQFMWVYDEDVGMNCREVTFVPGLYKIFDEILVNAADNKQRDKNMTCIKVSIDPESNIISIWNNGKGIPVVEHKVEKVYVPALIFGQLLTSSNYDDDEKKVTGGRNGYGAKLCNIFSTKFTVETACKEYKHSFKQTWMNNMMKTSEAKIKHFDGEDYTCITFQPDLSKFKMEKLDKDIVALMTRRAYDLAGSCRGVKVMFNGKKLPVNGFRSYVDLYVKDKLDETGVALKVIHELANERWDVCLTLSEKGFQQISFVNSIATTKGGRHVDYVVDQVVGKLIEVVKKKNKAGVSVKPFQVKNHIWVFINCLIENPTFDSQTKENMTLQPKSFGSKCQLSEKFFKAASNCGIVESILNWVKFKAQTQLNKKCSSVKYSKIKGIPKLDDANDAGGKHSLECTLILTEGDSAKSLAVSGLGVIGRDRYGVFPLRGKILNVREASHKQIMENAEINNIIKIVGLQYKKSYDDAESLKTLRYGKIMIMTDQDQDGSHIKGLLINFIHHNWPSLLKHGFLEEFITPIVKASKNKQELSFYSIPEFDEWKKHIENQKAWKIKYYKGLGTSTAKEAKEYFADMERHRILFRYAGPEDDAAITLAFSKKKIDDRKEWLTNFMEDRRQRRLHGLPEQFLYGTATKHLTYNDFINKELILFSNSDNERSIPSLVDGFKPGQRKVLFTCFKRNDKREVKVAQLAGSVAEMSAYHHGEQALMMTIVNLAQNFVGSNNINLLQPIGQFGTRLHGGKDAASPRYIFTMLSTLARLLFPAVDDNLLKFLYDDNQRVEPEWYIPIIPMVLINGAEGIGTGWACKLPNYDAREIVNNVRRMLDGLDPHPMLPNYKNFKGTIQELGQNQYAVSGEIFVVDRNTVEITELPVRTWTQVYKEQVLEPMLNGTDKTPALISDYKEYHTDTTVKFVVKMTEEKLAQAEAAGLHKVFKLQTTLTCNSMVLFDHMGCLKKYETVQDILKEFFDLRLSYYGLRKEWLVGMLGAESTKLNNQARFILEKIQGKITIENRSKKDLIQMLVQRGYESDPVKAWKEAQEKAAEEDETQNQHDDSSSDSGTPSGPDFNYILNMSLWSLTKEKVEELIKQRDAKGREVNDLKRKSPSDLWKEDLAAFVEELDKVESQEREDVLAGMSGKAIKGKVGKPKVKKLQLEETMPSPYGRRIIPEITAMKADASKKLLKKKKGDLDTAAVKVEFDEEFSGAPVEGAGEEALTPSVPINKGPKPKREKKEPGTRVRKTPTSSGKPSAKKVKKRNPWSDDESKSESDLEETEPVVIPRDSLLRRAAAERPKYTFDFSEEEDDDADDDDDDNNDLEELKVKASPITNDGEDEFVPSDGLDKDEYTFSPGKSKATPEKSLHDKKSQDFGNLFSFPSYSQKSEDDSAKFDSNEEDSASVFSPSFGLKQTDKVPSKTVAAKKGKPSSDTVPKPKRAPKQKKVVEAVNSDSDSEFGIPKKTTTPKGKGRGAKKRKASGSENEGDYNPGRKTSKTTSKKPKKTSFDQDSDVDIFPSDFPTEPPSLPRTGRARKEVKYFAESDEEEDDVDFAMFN
T10 sequence (Q9BUF5 whole entry): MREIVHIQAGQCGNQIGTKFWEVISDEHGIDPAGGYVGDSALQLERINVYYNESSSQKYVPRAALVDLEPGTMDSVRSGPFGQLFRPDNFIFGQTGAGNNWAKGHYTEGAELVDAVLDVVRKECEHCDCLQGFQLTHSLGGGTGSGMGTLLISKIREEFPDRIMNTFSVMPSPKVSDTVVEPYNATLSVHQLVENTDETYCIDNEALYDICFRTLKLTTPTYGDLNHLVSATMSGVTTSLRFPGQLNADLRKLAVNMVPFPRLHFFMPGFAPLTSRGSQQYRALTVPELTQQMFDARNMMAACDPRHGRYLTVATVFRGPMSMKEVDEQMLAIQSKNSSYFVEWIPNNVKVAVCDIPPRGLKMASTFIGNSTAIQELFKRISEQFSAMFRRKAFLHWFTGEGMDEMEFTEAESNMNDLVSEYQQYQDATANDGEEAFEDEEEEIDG

For the molecule `Cn1c2c(c(=N)c3c1CCC3)CCC2` [Compound 1, 4-methyl-2,3,4,5,6,7-hexahydrodicyclopenta[b,e]pyridin-8(1H)-imine], the Difference in experiment [1] (Cmpd minus DMSO, -LOG(P-value) 1.38674) is listed as -0.4405; in experiment [2] (Cmpd minus DMSO, -LOG(P-value) 0.706691), -2.301; in experiment [3] (Cmpd minus DMSO, -LOG(P-value) 0.713884), 3.378; in [4] (Cmpd minus DMSO, -LOG(P-value) 1.02279), -1.031; in [5] (Cmpd minus DMSO, -LOG(P-value) 0.742976), 1.036; in experiment [6] (Cmpd minus DMSO, -LOG(P-value) 0.979867), 2.154. Moreover, the Difference in [7] (Cmpd minus DMSO, -LOG(P-value) 0.745191) was determined as 1.429; in experiment [8] (Cmpd minus DMSO, -LOG(P-value) 1.1923) it was 2.593; in experiment [9] (Cmpd minus DMSO, -LOG(P-value) 0.714958), 1.117; in experiment [10] (Cmpd minus DMSO, -LOG(P-value) 2.60513), 3.82. Moreover, the “iBAQ Cmpd” value was 21.5649 and 21.7568 and 21.506 in experiment [1] (replicates 1-3); 19.2888 and 14.7277 and 18.6327 in experiment [2] (replicates 1-3); 19.623 and 19.0936 and 18.8692 in experiment [3] (replicates 1-3); 20.7578 and 20.8108 and 19.926 in experiment [4] (replicates 1-3); 16.8685 and 16.1972 and 16.6057 in [5] (replicates 1-3); 17.2458 and 16.9213 and 18.1218 in experiment [6] (replicates 1-3). The “iBAQ Cmpd” value in experiment [7] (replicates 1-3) is 17.7953 and 15.5869 and 17.7004; in experiment [8] (replicates 1-3), 19.0065 and 18.1463 and 18.0423; in experiment [9] (replicates 1-3), 18.1344 and 18.3969 and 16.5727; in experiment [10] (replicates 1-3), 19.1705 and 17.8309 and 17.4529.

These data come from PMC9481570, “A small molecule antagonist of SMN disrupts the interaction between SMN and RNAP II” (Nature Communications, 2022).
